Results: ChEMBL document CHEMBL1201861, “Genomics of Drug Sensitity in Cancer screening data, Wellcome Trust Sanger Institute”

Legend:
Assay in all cases: cells
COR-L88 = format: functional, cell-based; settings: Homo sapiens;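 further: growth inhibition of COR-L88 cells, read out with a cell viability assay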
Description: SANGER: Inhibition of human COR-L88 cell growth in a cell viability assay.

Ca-Ski = format: functional, cell-based; settings: Homo sapiens;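 further: cell viability assay measuring inhibition of Ca-Ski cell growth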
Description: SANGER: Inhibition of human Ca-Ski cell growth in a cell viability assay.

Ca9-22 = format: functional, cell-based, Homo sapiens; settings: Homo sapiens, Ca9-22;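 further: growth inhibition of Ca9-22 cells, read out with a cell viability assay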
Description: SANGER: Inhibition of human Ca9-22 cell growth in a cell viability assay.

DMS-273 = format: functional, cell-based, Homo sapiens; settings: Homo sapiens, DMS-273
Description: SANGER: Inhibition of human DMS-273 cell growth in a cell viability assay.

DOK = format: functional, cell-based, Homo sapiens; settings: Homo sapiens, DOK;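 further: cell viability assay read-out, values reflect inhibition of cell growth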
Description: SANGER: Inhibition of human DOK cell growth in a cell viability assay.

DU-145 = format: functional, cell-based, Homo sapiens; settings: Homo sapiens, DU-145
Description: SANGER: Inhibition of human DU-145 cell growth in a cell viability assay.

EW-11 = format: functional, cell-based, Homo sapiens; settings: Homo sapiens, EW-11;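 further: growth inhibition of human EW-11 cells, measured with a cell viability assay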
Description: SANGER: Inhibition of human EW-11 cell growth in a cell viability assay.

GI-ME-N = format: functional, cell-based, Homo sapiens; settings: Homo sapiens, GI-ME-N;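 further: growth inhibition of human GI-ME-N cells, read out with a cell viability assay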
Description: SANGER: Inhibition of human GI-ME-N cell growth in a cell viability assay.

GMS-10 = format: functional, cell-based, Homo sapiens; settings: Homo sapiens, GMS-10;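 further: growth inhibition of GMS-10 cells, read out as cell viability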
Description: SANGER: Inhibition of human GMS-10 cell growth in a cell viability assay.

GT3TKB = format: functional, cell-based, Homo sapiens; settings: Homo sapiens, GT3TKB;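 further: growth inhibition of the cell line, read out with a cell viability assay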
Description: SANGER: Inhibition of human GT3TKB cell growth in a cell viability assay.

HCC 2998 = format: functional, cell-based, Homo sapiens; settings: Homo sapiens, HCC 2998;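 further: growth inhibition of human HCC2998 cells, measured with a cell viability read-out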
Description: SANGER: Inhibition of human HCC2998 cell growth in a cell viability assay.

HCT-116 = format: functional, cell-based, Homo sapiens; settings: Homo sapiens, HCT-116
Description: SANGER: Inhibition of human HCT-116 cell growth in a cell viability assay.

HMV-2 cell line = format: functional, cell-based, Homo sapiens; settings: Homo sapiens, HMV-2;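 further: growth inhibition of HMV-II cells, read out with a cell viability assay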
Description: SANGER: Inhibition of human HMV-II cell growth in a cell viability assay.

Huh-7 = format: functional, cell-based, Homo sapiens; settings: Homo sapiens, Huh-7;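 further: HuH-7 cell growth inhibition, read out with a cell viability assay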
Description: SANGER: Inhibition of human HuH-7 cell growth in a cell viability assay.

IGR-1 = format: functional, cell-based, Homo sapiens; settings: Homo sapiens, IGR-1;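 further: growth inhibition of human IGR-1 cells, read out with a cell viability assay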
Description: SANGER: Inhibition of human IGR-1 cell growth in a cell viability assay.

IST-MEL1 = format: functional, cell-based, Homo sapiens; settings: Homo sapiens, IST-MEL1;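 further: growth inhibition of the cell line, read out with a cell viability assay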
Description: SANGER: Inhibition of human IST-MEL1 cell growth in a cell viability assay.

IST-MES1 = format: functional, cell-based, Homo sapiens; settings: Homo sapiens, IST-MES1;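 further: growth inhibition of IST-MES1 cells, measured with a cell viability assay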
Description: SANGER: Inhibition of human IST-MES1 cell growth in a cell viability assay.

KINGS-1 = format: functional, cell-based, Homo sapiens; settings: Homo sapiens, KINGS-1;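 further: cell viability assay measuring suppression of KINGS-1 cell growth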
Description: SANGER: Inhibition of human KINGS-1 cell growth in a cell viability assay.

KYSE-450 = format: functional, cell-based; settings: Homo sapiens;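 further: cell growth inhibition measured by a viability assay in human KYSE-450 cells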
Description: SANGER: Inhibition of human KYSE-450 cell growth in a cell viability assay.

LB996-RCC = format: functional, cell-based; settings: Homo sapiens
Description: SANGER: Inhibition of human LB996-RCC cell growth in a cell viability assay.

LCLC-103H cell line = format: functional, cell-based, Homo sapiens; settings: Homo sapiens, LCLC-103H
Description: SANGER: Inhibition of human LCLC-103H cell growth in a cell viability assay.

LN-405 = format: functional, cell-based, Homo sapiens; settings: Homo sapiens, LN-405
Description: SANGER: Inhibition of human LN-405 cell growth in a cell viability assay.

Lu-65 = format: functional, cell-based; settings: Homo sapiens;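 further: growth inhibition of Lu-65 cancer cells, read out by a cell viability assay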
Description: SANGER: Inhibition of human LU-65 cell growth in a cell viability assay.

MIA PaCa-2 = format: functional, cell-based, Homo sapiens; settings: Homo sapiens, MIA PaCa-2;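 further: growth inhibition of MIA PaCa-2 cells, read out with a cell viability assay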
Description: SANGER: Inhibition of human MIA-PaCa-2 cell growth in a cell viability assay.

MLMA = format: functional, cell-based, Homo sapiens; settings: Homo sapiens, MLMA;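 further: growth inhibition of MLMA cells (human), determined through a cell viability readout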
Description: SANGER: Inhibition of human MLMA cell growth in a cell viability assay.

NB69 = format: functional, cell-based, Homo sapiens; settings: Homo sapiens, NB69;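 further: growth inhibition of NB69 cells, determined by a cell viability assay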
Description: SANGER: Inhibition of human NB69 cell growth in a cell viability assay.

NCI-H1395 = format: functional, cell-based, Homo sapiens; settings: Homo sapiens, NCI-H1395;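 further: cell viability assay read-out quantifying reduced proliferation of human NCI-H1395 cells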
Description: SANGER: Inhibition of human NCI-H1395 cell growth in a cell viability assay.

NCI-H1792 = format: functional, cell-based, Homo sapiens; settings: Homo sapiens, NCI-H1792;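 further: growth inhibition of human NCI-H1792 cells, read out as cell viability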
Description: SANGER: Inhibition of human NCI-H1792 cell growth in a cell viability assay.

NCI-H1793 = format: functional, cell-based, Homo sapiens; settings: Homo sapiens, NCI-H1793;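 further: cell growth inhibition, read out by a cell viability assay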
Description: SANGER: Inhibition of human NCI-H1793 cell growth in a cell viability assay.

NCI-H2122 = format: functional, cell-based, Homo sapiens; settings: Homo sapiens, NCI-H2122;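 further: growth inhibition of the cells, read out with a cell viability assay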
Description: SANGER: Inhibition of human NCI-H2122 cell growth in a cell viability assay.

NCI-H2228 = format: functional, cell-based, Homo sapiens; settings: Homo sapiens, NCI-H2228;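 further: growth inhibition of human NCI-H2228 cells, read out by a cell viability assay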
Description: SANGER: Inhibition of human NCI-H2228 cell growth in a cell viability assay.

NCI-H596 = format: functional, cell-based, Homo sapiens; settings: Homo sapiens, NCI-H596;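 further: growth inhibition of NCI-H596 cells, read out with a cell viability assay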
Description: SANGER: Inhibition of human NCI-H596 cell growth in a cell viability assay.

NCI-H69 = format: functional, cell-based; settings: Homo sapiens;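 further: growth inhibition of the cell line, read out with a cell viability assay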
Description: SANGER: Inhibition of human NCI-H69 cell growth in a cell viability assay.

NCI-H810 = format: functional, cell-based, Homo sapiens; settings: Homo sapiens, NCI-H810;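 further: IC50 reflects inhibition of cancer cell line growth, read out with a cell viability assay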
Description: SANGER: Inhibition of human NCI-H810 cell growth in a cell viability assay.

NCI-N87 = format: functional, cell-based, Homo sapiens; settings: Homo sapiens, NCI-N87;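 further: growth inhibition of human NCI-N87 cells, read out with a cell viability assay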
Description: SANGER: Inhibition of human NCI-N87 cell growth in a cell viability assay.

OMC-1 = format: functional, cell-based, Homo sapiens; settings: Homo sapiens, OMC-1;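 further: growth inhibition of the OMC-1 cell line, measured by a cell viability assay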
Description: SANGER: Inhibition of human OMC-1 cell growth in a cell viability assay.

OVCAR-3 = format: functional, cell-based, Homo sapiens; settings: Homo sapiens, OVCAR-3;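 further: growth inhibition of human OVCAR-3 cells, determined by a cell viability assay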
Description: SANGER: Inhibition of human OVCAR-3 cell growth in a cell viability assay.

QIMR-WIL = format: functional, cell-based; settings: Homo sapiens;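 further: growth inhibition of QIMR-WIL cells, read out with a cell viability assay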
Description: SANGER: Inhibition of human QIMR-WIL cell growth in a cell viability assay.

SF-126 = format: functional, cell-based, Homo sapiens; settings: Homo sapiens, SF-126;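 further: growth inhibition of human SF126 cells, read out with a cell viability assay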
Description: SANGER: Inhibition of human SF126 cell growth in a cell viability assay.

SW1990 = format: functional, cell-based, Homo sapiens; settings: Homo sapiens, SW1990;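 further: cell growth inhibition determined with a viability assay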
Description: SANGER: Inhibition of human SW1990 cell growth in a cell viability assay.

SW684 = format: functional, cell-based, Homo sapiens; settings: Homo sapiens, SW684;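 further: growth inhibition of human SW684 cells, measured by a cell viability assay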
Description: SANGER: Inhibition of human SW684 cell growth in a cell viability assay.

SW756 = format: functional, cell-based, Homo sapiens; settings: Homo sapiens, SW756;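 further: growth inhibition of human SW756 cells, read out with a cell viability assay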
Description: SANGER: Inhibition of human SW756 cell growth in a cell viability assay.

SiHa = format: functional, cell-based, Homo sapiens; settings: Homo sapiens, SiHa;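 further: Viability-based readout of growth inhibition in SiHa cells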
Description: SANGER: Inhibition of human SiHa cell growth in a cell viability assay.

5637 = format: functional, cell-based, Homo sapiens; settings: Homo sapiens
Description: SANGER: Inhibition of human 5637 cell growth in a cell viability assay.

BFTC-909 = format: functional, cell-based, Homo sapiens; settings: Homo sapiens, BFTC-909
Description: SANGER: Inhibition of human BFTC-909 cell growth in a cell viability assay.

C32 = format: functional, cell-based, Homo sapiens; settings: Homo sapiens, C32;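 further: cell viability assay, with IC50 reflecting inhibition of C32 cell growth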
Description: SANGER: Inhibition of human C32 cell growth in a cell viability assay.

TGBC1TKB = format: functional, cell-based, Homo sapiens; settings: Homo sapiens, TGBC1TKB;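 further: growth inhibition of TGBC1TKB cells, read out by a cell viability assay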
Description: SANGER: Inhibition of human TGBC1TKB cell growth in a cell viability assay.

UACC-257 = format: functional, cell-based, Homo sapiens; settings: Homo sapiens, UACC-257
Description: SANGER: Inhibition of human UACC-257 cell growth in a cell viability assay.

VA-ES-BJ = format: functional, cell-based, Homo sapiens; settings: Homo sapiens, VA-ES-BJ;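 further: growth inhibition of the VA-ES-BJ cell line, read out by a cell viability assay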
Description: SANGER: Inhibition of human VA-ES-BJ cell growth in a cell viability assay.

CHP-212 = format: functional, cell-based, Homo sapiens; settings: Homo sapiens, CHP-212
Description: SANGER: Inhibition of human CHP-212 cell growth in a cell viability assay.

Cc1cnc(-c2cnc(NCCNc3ccc(C#N)cn3)nc2-c2ccc(Cl)cc2Cl)[nH]1 [LADUVIGLUSIB]
IC50 (COR-L88): > 2.56 µM
IC50 (Ca-Ski): > 2.56 µM
IC50 (Ca9-22): > 2.56 µM
IC50 (DMS-273): > 2.56 µM
IC50 (DOK): > 2.56 µM
IC50 (DU-145): > 2.56 µM
IC50 (EW-11): > 2.56 µM
IC50 (GI-ME-N): > 2.56 µM
IC50 (GMS-10): > 2.56 µM
IC50 (GT3TKB): > 2.56 µM
IC50 (HCC 2998): > 2.56 µM
IC50 (HCT-116): > 2.56 µM
IC50 (HMV-2 cell line): > 2.56 µM
IC50 (Huh-7): > 2.56 µM
IC50 (IGR-1): > 2.56 µM
IC50 (IST-MEL1): > 2.56 µM
IC50 (IST-MES1): > 2.56 µM
IC50 (KINGS-1): > 2.56 µM
IC50 (KYSE-450): > 2.56 µM
IC50 (LB996-RCC): > 2.56 µM
IC50 (LCLC-103H cell line): > 2.56 µM
IC50 (LN-405): > 2.56 µM
IC50 (Lu-65): > 2.56 µM
IC50 (MIA PaCa-2): 1.76 µM
IC50 (MLMA): > 2.56 µM
IC50 (NB69): > 2.56 µM
IC50 (NCI-H1395): > 2.56 µM
IC50 (NCI-H1792): > 2.56 µM
IC50 (NCI-H1793): > 2.56 µM
IC50 (NCI-H2122): 2.28 µM
IC50 (NCI-H2228): > 2.56 µM
IC50 (NCI-H596): > 2.56 µM
IC50 (NCI-H69): > 2.56 µM
IC50 (NCI-H810): > 2.56 µM
IC50 (NCI-N87): > 2.56 µM
IC50 (OMC-1): > 2.56 µM
IC50 (OVCAR-3): > 2.56 µM
IC50 (QIMR-WIL): > 2.56 µM
IC50 (SF-126): > 2.56 µM
IC50 (SW1990): > 2.56 µM
IC50 (SW684): > 2.56 µM
IC50 (SW756): > 2.56 µM
IC50 (SiHa): > 2.56 µM
IC50 5637: > 2.56 µM
IC50 (BFTC-909): > 2.56 µM
IC50 (C32): > 2.56 µM
IC50 (TGBC1TKB): > 2.56 µM
IC50 (UACC-257): > 2.56 µM
IC50 (VA-ES-BJ): > 2.56 µM
IC50 (CHP-212): > 2.56 µM
